Assay results from patent publication US20180346731A1, “Formation of Stable Pyranoanthocyanins, and Uses Thereof as Sources of Natural Color” (Ohio State Innovation Foundation, priority 2017, published 2018).
“And” between values parts separate entries of the source, which are not always exact repeats. Identical values can stand only once. Blank lines part the entries; values can stand above or below the compound they belong to.

Legend:
[1] = UV-Vis absorbance loss and first-order bleaching kinetics of pigment solutions with ascorbic acid (pH 3.0 citrate buffer, 25° C., dark); type: physicochemical; conditions: for K (reaction rate, first-order) / t1/2: 25° C. dark
Experimental: The semi-purified chokeberry extract, the isolated cyanidin-3-galactoside, and the purified 5-carboxypyranocyanidin-3-galactoside were diluted in pH 3.0 citrate buffer (0.1 M adjusted with HCl) until an absorbance of 1.0 at their respective λmax was reached. Levels of AA of 250, 500, and 1000 mg/L were added using a concentrated ascorbic acid stock solution, and a control consisting of each pigment with the absence of AA was maintained. The control consisted of the pigment in the buffer in the absence of AA. An additional test was performed with the same model juice using hydrogen peroxide, a known degradation product of AA. To determine if AA bleaching was due to formation of H2O2, direct addition of it was investigated. In place of added AA, a 62.2 μL of a 0.3% peroxide solution was added to match the molar equivalency of the 500 mg/L AA level, which was 2.84 mM. All samples were brought to the same final volume with additional citrate buffer. […] Samples were stored in the dark at 25° C. in an incubator. UV-Vis spectrophotometry, colorimetry, and HPLC analyses were conducted over a 5 day period following the addition of ascorbic acid or hydrogen peroxide. UV-Vis spectral data was collected every hour for the first 8 hours, and then at 12 hr, and daily from that point on for 5 days. […] HPLC analyses were conducted on days 0, 1, 3, and 5. All treatments were run in triplicate. A SpectraMax 190 Microplate Reader (Molecular Devices, Sunnyvale, Calif., U.S.) with a 96-well plate (poly-D-lysine coated polystyrene) were used for the evaluation of absorbance from 380-700 nm, 1 nm intervals. Aliquots (200 uL) of samples were loaded into individual wells, and a blank consisted of the same citrate buffer used. Because of the rapid nature of AA-induced color loss, degradation kinetics were evaluated in terms of change in maximum absorbance at the original λmax over time. Bleaching is a first-order reaction, typical of ACN degradation, and was modeled as such in determining the reaction rate and half-life. The decrease in maximum absorbance correlated with an increase in lightness (L*) as well as the decrease in chroma (c*). The reduction in maximum absorbance did closely follow first-order kinetics for chokeberry extract and cyanidin-3-galactoside but slightly deviated for 5-carboxypyranocyanidin-3-galactoside. […] The kinetics results for each pigment and AA level can be found in Table 3 below.

[2] = Colorimetry (CIEL*c*h*, ΔE) of pigment solutions with ascorbic acid; type: physicochemical
Experimental: (§1) The semi-purified chokeberry extract, the isolated cyanidin-3-galactoside, and the purified 5-carboxypyranocyanidin-3-galactoside were diluted in pH 3.0 citrate buffer (0.1 M adjusted with HCl) until an absorbance of 1.0 at their respective λmax was reached. Levels of AA of 250, 500, and 1000 mg/L were added using a concentrated ascorbic acid stock solution, and a control consisting of each pigment with the absence of AA was maintained. The control consisted of the pigment in the buffer in the absence of AA. An additional test was performed with the same model juice using hydrogen peroxide, a known degradation product of AA. To determine if AA bleaching was due to formation of H2O2, direct addition of it was investigated. In place of added AA, a 62.2 μL of a 0.3% peroxide solution was added to match the molar equivalency of the 500 mg/L AA level, which was 2.84 mM.
(§2) All samples were brought to the same final volume with additional citrate buffer. […] Samples were stored in the dark at 25° C. in an incubator. UV-Vis spectrophotometry, colorimetry, and HPLC analyses were conducted over a 5 day period following the addition of ascorbic acid or hydrogen peroxide. UV-Vis spectral data was collected every hour for the first 8 hours, and then at 12 hr, and daily from that point on for 5 days. […] HPLC analyses were conducted on days 0, 1, 3, and 5. All treatments were run in triplicate.
Using UV-Vis spectral data (5 nm steps, 380-700 nm) in combination with software written for color conversion, absorbance data was translated to CIE-L*c*h*. The calculations for CIE-L*c*h* implemented by the software used CIE relative spectral power distribution for a D65 standard illuminants and 10° observer angle function. Color data is reported as L* (lightness), c* (chroma), and h* (hue angle).
Total color changes (ΔE) were calculated as the color change from day 0 to 5 for each respective treatment, and presented in Table 4.
Numbers are means of 3 replications, followed by (standard deviations). ΔE: total color change from day 0 (control) to day 5.

[3] = HPLC monitoring of pigment peaks with ascorbic acid; type: physicochemical
Experimental: Prior to experimentation, pigments were evaluated for purity by using an analytical HPLC only different from the previously listed one by the use of different pumps (LC-20AD, Shimadzu, Md., US). Purified pigments were filtered using the Phenex RC 0.45 μm membranes. A binary system with 1 mL/min flow rate was used: solvent A: 4.5% formic acid in HPLC grade water and solvent B: HPLC grade acetonitrile. The gradient began with an isocratic flow of 6% solvent B for 17 minutes (elution of primary anthocyanins), increasing to 15% solvent B by 45 minutes (elution of primary pyranoanthocyanins), and to 40% solvent B by 50 minutes. A 10 μL injection volume was loaded onto a Phenomenex Kinetix 5 μm EVO C18 100 A. 150×4.6 mm column and Phenomenex Ultra UHPLC EVO C18 guard cartridge attached.
as §1, §2
Prepared solutions were monitored to determine the formation of potential degradation products or profile changes. Using the analytical HPLC system and conditions described, chromatograms were monitored with the max plot (260-700 nm), 490 nm (near λmax of 5-carboxypyranocyanidin-3-galactoside), and 520 nm (near ma of cyanidin-3-galactoside). A max plot of 470-520 nm was later added to standardize changes in the AUC for all three pigments and their degradation products.

[4] = Direct hydrogen peroxide addition to pigment solutions (HPLC, absorbance); type: physicochemical
Experimental: as §1
All samples were brought to the same final volume with additional citrate buffer. […] Samples were stored in the dark at 25° C. in an incubator. UV-Vis spectrophotometry, colorimetry, and HPLC analyses were conducted over a 5 day period following the addition of ascorbic acid or hydrogen peroxide. […]
Auto-oxidation of AA in solution can give rise to H2O2 formation, a powerful bleaching agent that can further lead to rapid ACN degradation. […] HPLC profiles as well as maximum absorbance and λmax of the solutions were evaluated.

[5] = reported in literature; cited from earlier work

K (reaction rate, first-order) ([1]; 250 mg/L AA): 2.69E−03
t1/2 ([1]; 250 mg/L AA): 258 h
reduction in maximum absorbance ([1]; 500 mg/L AA, 5 day period): 38%
λmax after hypsochromic change ([1]; 500 mg/L AA, after treatment): 484 nm
λmax before hypsochromic change ([1]; 500 mg/L AA, start): 491 nm
K (reaction rate, first-order) ([1]; 500 mg/L AA): 4.61E−03
t1/2 ([1]; 500 mg/L AA): 150 h
K (reaction rate, first-order) ([1]; 1000 mg/L AA): 1.08E−02
t1/2 ([1]; 1000 mg/L AA): 64 h
K (reaction rate, first-order) ([1]; Control, no AA, absorbance at λvis-max): 7.08E−04
time before a significant difference (p<0.05) in maximum absorbance from time 0 ([1]; all levels of AA added): 24 h
hypsochromic shift of λmax ([1]; over the 5 days of AA treatment, regardless of AA level): ≤ 10 nm
Chroma Day 0 ([2]; 250 mg/L AA): 55.2 (0.4)
Chroma Day 5 ([2]; 250 mg/L AA): 43.2 (0.2)
Hue Angle Day 0 ([2]; 250 mg/L AA): 50.7 (0.2) °
Hue Angle Day 5 ([2]; 250 mg/L AA): 46.9 (.3) °
Lightness Day 0 ([2]; 250 mg/L AA): 81.9 (0.1)
Lightness Day 5 ([2]; 250 mg/L AA): 82.8 (0.3)
ΔE Over 5 days ([2]; 250 mg/L AA): 4.5 (0.2)
Chroma Day 0 ([2]; 500 mg/L AA): 54.7 (0.3)
Chroma Day 5 ([2]; 500 mg/L AA): 39.2 (0.3)
Hue Angle Day 0 ([2]; 500 mg/L AA): 50.4 (0.1) °
Hue Angle Day 5 ([2]; 500 mg/L AA): 48.3 (0.4) °
Lightness Day 0 ([2]; 500 mg/L AA): 82.1(0.3)
Lightness Day 5 ([2]; 500 mg/L AA): 83.6 (0.4)
ΔE Over 5 days ([2]; 500 mg/L AA): 5.0 (0.2)
Chroma Day 5 ([2]; 1000 mg/L AA): 36.2 (0.3)
Hue Angle Day 0 ([2]; 1000 mg/L AA): 51.0 ° and 51.0 (0.1) °
Hue Angle Day 5 ([2]; 1000 mg/L AA): 57.1 ° and 57.1 (0.7) °
Lightness Day 5 ([2]; 1000 mg/L AA): 83.7 (0.2)
ΔE Over 5 days ([2]; 1000 mg/L AA): 5.2 (0.5)
L* after 48 hours ([2]; 1000 mg/L AA, 48 hours): 86.6
ΔE Over 5 days ([2]; 1000 mg/L AA, listed as 5-Carboxypyranocyanidin-3-galactoside): 5.2
Chroma Day 0 ([2]; Control, no AA): 54.3 (0.7)
Chroma Day 5 ([2]; Control, no AA): 49.9 (1.3)
Hue Angle Day 0 ([2]; Control, no AA): 50.0 (0.2) °
Hue Angle Day 5 ([2]; Control, no AA): 47.5 (0.6) °
Lightness Day 5 ([2]; Control, no AA): 82.2 (0.6)
ΔE Over 5 days ([2]; Control, no AA): 2.1 (0.4)
Lightness Day 0 ([2]; Control, no AA, mean (SD), n=3): 82.2 (0.2)
time until significant change in chroma as compared to the control ([2]; all levels of AA): 48 h
initial hue angle ([2]; day 0): 50 °
target peaks left after 1 day ([3]; 1000 mg/L AA, HPLC): 10%
reduction of pigment peak by day 1 ([3]; 1 g/L AA, HPLC AUC): 93%
reduction of pigment peak by day 5 ([3]; 1 g/L AA, HPLC AUC): 99%
SMILES: O=C(O)C1=Cc2c(O[C@@H]3O[C@H](CO)[C@H](O)[C@H](O)[C@H]3O)c(-c3ccc(O)c(O)c3)[o+]c3cc(O)cc(c23)O1 [5-carboxypyranocyanidin-3-galactoside]
resistance to bleaching with H2O2 [4]: more resistant to bleaching compared to anthocyanins

SMILES: OC[C@H]1O[C@@H](Oc2cc3c(O[C@@H]4O[C@H](CO)[C@@H](O)[C@H](O)[C@H]4O)cc(O)cc3[o+]c2-c2ccc(O)c(O)c2)[C@H](O)[C@@H](O)[C@@H]1O [Cy-3-glu-5-glu]
pKh [5]: 2.23
